The text below walks through data of patent US20120142682A1, “ANT[…] INHIBITING BACTERIAL MONO-ADP-RIBOSYLT[…]” (UNIVERSITY OF GUELPH, priority 2010, published 2012).

Assay [1] concerns ExoA intoxicated C38 cells. The class given is cell-based, Human.
The subject of assay [2] is Saccharomyces cerevisiae cells expressing the catalytic domain of P. aeruginosa ExoA (ExoAc). Nature of the assay: Yeast-based compound screen. Particulars: compound 50 μM; for Protection in Yeast: w303 strain, growth restored. The class given is cell-based.
Assay [3] deals with C38 cells in the presence of 650 ng/mL of ExoA. In words: Determination of half-maximal effective concentration (EC50) in C38 cells. The following applies: 96 h. The class given is cell-based, Human. The method, then:
Cell viability was determined using the same method as the cytoprotection assay. The EC50 values were extrapolated from each corresponding line-of-best-fit (Sigmoidal function in Origin 6.1), and the average values reported±the standard deviation.

Another assay addresses WT ExoAc (Pseudomonas aeruginosa, UniProt P11439). Nature of the assay: biochemical. The class given is binding, P. aeruginosa.
The next assay concerns the target cholix toxin (Vibrio cholerae, UniProt Q5EK40). In words: biochemical. The class given is biochemical.
[4] abbreviates: 650 ng/ml ExoA (10-times LD50), NAP and V30 with 0.5% DMSO.

Read-outs that look alike come from different tables or passages of the source.

Chain of WT ExoAc (P11439 430-638 limits assumed): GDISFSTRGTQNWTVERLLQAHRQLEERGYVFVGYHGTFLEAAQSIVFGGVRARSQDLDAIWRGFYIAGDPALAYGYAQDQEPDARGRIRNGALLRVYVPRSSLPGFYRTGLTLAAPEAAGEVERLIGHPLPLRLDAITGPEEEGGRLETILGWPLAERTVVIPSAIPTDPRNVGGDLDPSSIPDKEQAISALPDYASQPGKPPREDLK
Chain of cholix toxin (Q5EK40 33-666 limits assumed): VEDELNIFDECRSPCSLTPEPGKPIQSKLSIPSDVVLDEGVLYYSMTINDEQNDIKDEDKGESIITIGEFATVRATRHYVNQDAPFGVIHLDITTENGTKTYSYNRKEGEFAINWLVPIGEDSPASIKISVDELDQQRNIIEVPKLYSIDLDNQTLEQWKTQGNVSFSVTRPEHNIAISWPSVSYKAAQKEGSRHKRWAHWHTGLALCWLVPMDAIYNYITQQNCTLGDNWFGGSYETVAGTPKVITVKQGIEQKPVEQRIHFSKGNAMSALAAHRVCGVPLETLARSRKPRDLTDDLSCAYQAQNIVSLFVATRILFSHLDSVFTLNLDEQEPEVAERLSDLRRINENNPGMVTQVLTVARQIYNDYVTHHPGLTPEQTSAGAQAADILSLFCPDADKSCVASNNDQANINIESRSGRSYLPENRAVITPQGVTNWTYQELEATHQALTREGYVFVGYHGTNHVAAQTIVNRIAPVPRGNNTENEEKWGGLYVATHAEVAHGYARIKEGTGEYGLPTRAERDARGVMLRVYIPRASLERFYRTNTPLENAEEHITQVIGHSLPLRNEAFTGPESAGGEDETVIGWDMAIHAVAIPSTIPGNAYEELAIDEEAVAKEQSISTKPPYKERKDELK

Consider `Cc1cccc(Cn2c(N3CCCCC3C)nc3c2c(=O)[nH]c(=O)n3C)c1` (centres unmarked) [Compound V10], for which, in assay [1], the “protection of C38 cells against ExoA (in words)” value (shortened to “protection of C38 cells”) was “Weak protection”. Besides, in assay [2], the “Protection in Yeast” value is “− (Compounds showing less than 5% growth were scored (−))”.
As to `O=C(C1CCCN(Cc2c[nH]c3ccccc23)C1)N1CCCCCC1` (centres unmarked) [Compound V13], the “Protection in Yeast” value in assay [2] is on record as “− (Compounds showing less than 5% growth were scored (−))”.
For the molecule `Cn1c(=O)c2[nH]c(CN3CCc4ccccc4C3)nc2n(C)c1=O` [Compound V12], in assay [1], the “LD50 of ExoA in the presence of compound” value worked out at 228 ± 12 ng/mL, the “increase of the LD50 of ExoA” value was roughly 3 fold and the “protection of C38 cells” value was “moderate activity”. In assay [2], the “Protection in Yeast” value was “− (Compounds showing less than 5% growth were scored (−))”.
Consider `CCc1ccc2ncc(C(=O)O)c(O)c2c1` [Compound V27], for which, in assay [2], the “Protection in Yeast” value was “− (Compounds showing less than 5% growth were scored (−))”.
In the case of `COc1ccc(Nc2nc(N3CCN(CCO)CC3)nc3ccccc23)c(OC)c1` [Compound V8], the “Protection in Yeast” value in assay [2] is listed as “− (Compounds showing less than 5% growth were scored (−))”.
Take `O=C(NCCNc1ccnc2cc(Cl)ccc12)c1ccccc1F` [Compound V4]: the “Protection in Yeast” value in assay [2] is “− (Compounds showing less than 5% growth were scored (−))”.
Take `O=C(CCCC(=O)Nc1ccc(F)c(Cl)c1)Nc1ccc(F)c(Cl)c1` [Compound V5]: in assay [2], the “Protection in Yeast” value is listed as “toxic (any compound that reduced cell viability to less than 30%)”.
What is called EC50 is the concentration giving half of the maximal effect. Usually Kd stands for the free concentration of one partner at which half of the binding sites on the other are occupied at equilibrium, for simple one-to-one binding. In general, IC50 refers to the concentration that inhibits the measured activity by half. In general, Ki refers to the dissociation constant of the complex between target and ligand, obtained from inhibition or displacement. As to `CN(C)Cc1nc2cccc3c2n1CCNC3=O` [Compound P4], in assay [2], the “Protection in Yeast” value is “− (Compounds showing less than 5% growth were scored (−))”. The EC50 in assay [3] (setting [4]) was 12600 ± 3300 nM. The dissociation constant (Kd) at WT ExoAc (read-out: Kd) came to 1380 ± 30 nM. For the same molecule, the half-maximal inhibitory concentration (IC50) on cholix toxin (read-out: IC50) came to 960 nM. Besides, at cholix toxin (read-out: Ki), the Ki was determined as 132 ± 7 nM.
For the molecule `Nc1ccc2c3c(cccc13)C(=O)NC2=O` [Compound 4-NAP, reference compound], in assay [2], the “Protection in Yeast” value was “++ (25-50% (++))”.
Regarding `Nc1c(C(=O)Nc2ccc(S(N)(=O)=O)cc2)sc2nc3c(cc12)CCCC3` [Compound V6], the “Protection in Yeast” value in assay [2] was “− (Compounds showing less than 5% growth were scored (−))”.
In the case of `CCN(CC)CCn1c(NCc2ccc(F)cc2)nc2ccccc21.Cl.Cl` [Compound V24], in assay [1], the “LD50 of ExoA in the presence of compound” value is 238 ± 16 ng/mL and the “protection of C38 cells” value is on record as “moderate activity”. Moreover, in assay [2], the “Protection in Yeast” value is “− (Compounds showing less than 5% growth were scored (−))”.
For the molecule `O=C1NCCn2c(CCc3ccc(CN4CCCC4)cc3)nc3cccc1c32` [Compound P5], the “Protection in Yeast” value in assay [2] is recorded as “− (Compounds showing less than 5% growth were scored (−))”. Also, in assay [3] (setting [4]), the EC50 worked out at 16700 ± 1900 nM. In addition, the Kd at WT ExoAc (read-out: Kd) is 750 ± 10 nM. In addition, at cholix toxin (read-out: IC50), the 50% inhibitory concentration (IC50) amounted to 4460 nM. The Ki at cholix toxin (read-out: Ki) came to 582 ± 124 nM.
As to `CN(C)CC(=O)Nc1ccc2[nH]c(=O)c3ccccc3c2c1.Cl` [PJ34, N-(6-oxo-5,6-dihydrophenanthridin-2-yl)-(N,N-dimethylamino)acetamide hydrochloride, reference compound], the “Protection in Yeast” value in assay [2] is given as “− (Compounds showing less than 5% growth were scored (−))”. The affinity on WT ExoAc, expressed as Kd, was 820 ± 54 nM. On cholix toxin, this molecule returned an IC50 of 280 ± 70 nM and a Ki of 37 ± 9 nM.
As for `CCOC(=O)c1[nH]c(C)c(C(=O)C2=C(O)C(=O)N(CCCN3CCOCC3)C2c2cccc(F)c2)c1C` (centres unmarked) [Compound V25], in assay [1], the “protection of C38 cells” value was “Weak protection”. In addition, in assay [2], the “Protection in Yeast” value is recorded as “− (Compounds showing less than 5% growth were scored (−))”.
As to `CC(=O)Nc1c(Nc2ccccc2)c2ccccc2oc1=O` [Compound V31], in assay [1], the “protection of C38 cells” value is “Weak protection”. Moreover, in assay [2], the “protection in yeast against ExoAc (in words)” value is on record as “weak protection” and the “Protection in Yeast” value is listed as “+ (5-25% (+))”.
Regarding `Cc1cc(Nc2ccc(O)cc2)c2ccccc2n1.Cl` [Compound V16], the “protection of C38 cells” value in assay [1] was “Weak protection”. Besides, in assay [2], the “Protection in Yeast” value was “− (Compounds showing less than 5% growth were scored (−))”.
The corresponding values for `CN(C)CCNc1c(N)c(=O)oc2ccccc12` [Compound V22] are “Weak protection” and “− (Compounds showing less than 5% growth were scored (−))”.
For `CN1CCN(CCCNc2c(N)c(=O)oc3ccccc23)CC1` [Compound V23], in assay [1], the “LD50 of ExoA in the presence of compound” value was determined as 199 ± 30 ng/mL and the “protection of C38 cells” value was “moderate activity”. In addition, in assay [2], the “protection in yeast against ExoAc (in words)” value was “modest protection” and the “Protection in Yeast” value is “++ (25-50% (++))”.
As for `CCOC(=O)c1cnc2ccc(OCC)cc2c1Nc1ccc(C)cc1C` [Compound V28], in assay [2], the “Protection in Yeast” value was “toxic (any compound that reduced cell viability to less than 30%)”.
On to `CN1CCN(c2c(N)c(=O)oc3ccccc23)CC1` [Compound V2], for which the “Protection in Yeast” value in assay [2] was “− (Compounds showing less than 5% growth were scored (−))”.
For the molecule `O=C1NCC2c3cc(S(=O)(=O)O)ccc3Oc3cccc1c32` (centres unmarked) [Compound P8], in assay [1], the “protection of C38 cells” value is “modest”. The “Protection in Yeast” value in assay [2] is “− (Compounds showing less than 5% growth were scored (−))”. Also, the “difference in affinity between the two binding sites” value on WT ExoAc is on record as roughly 50 fold. Moreover, the Kd on WT ExoAc (read-out: Kd) is 160 nM; on WT ExoAc (read-out: Kd, second (lower affinity) binding constant (converted)) it was 5210 nM. Besides, at cholix toxin (read-out: IC50), the half-maximal inhibitory concentration (IC50) turned out to be 1040 ± 136 nM. Further, the Ki on cholix toxin (read-out: Ki) turned out to be 136 ± 3 nM.
Regarding `Cc1[nH]c2ccccc2c1CN1CCN(c2ccccn2)CC1` [Compound V14], the “Protection in Yeast” value in assay [2] is “− (Compounds showing less than 5% growth were scored (−))”.
On to `O=C1NC(=O)c2cccc3cccc1c23` [NAP, 1,8-naphthalimide, reference compound], for which, in assay [1], the “protection of C38 cells” value was “excellent protection”. Further, the “Protection in Yeast” value in assay [2] is on record as “++++ (Compounds found to restore growth to 50-75% (++++))”. In addition, in assay [3] (Homo sapiens), the concentration giving a half-maximal response (EC50) was found to be 3800 ± 900 nM. On WT ExoAc, this molecule had a dissociation constant Kd of 950 ± 30 nM.
Turning to `Cn1c(=O)[nH]c(=O)c2c1nc(N1CCCCC1)n2CCCSc1nc2ccccc2s1` [Compound V19], the “Protection in Yeast” value in assay [2] is “− (Compounds showing less than 5% growth were scored (−))”.
As to `CCn1c(SCc2nc3ccccc3c(=O)[nH]2)nnc1-c1ccc(Cl)cc1` [Compound V15], in assay [1], the “LD50 of ExoA in the presence of compound” value turned out to be 208 ± 41 ng/mL and the “protection of C38 cells” value is “moderate activity”. Besides, in assay [2], the “protection in yeast against ExoAc (in words)” value is listed as “weak protection” and the “Protection in Yeast” value is “+ (5-25% (+))”.
With `Brc1cccc(CNc2nc3ccccc3n2CCN2CCOCC2)c1` [Compound V26], in assay [1], the “protection of C38 cells” value is listed as “Weak protection”. In assay [2], the “Protection in Yeast” value is “− (Compounds showing less than 5% growth were scored (−))”.
In the case of `CCN(CC)CCn1c(NCc2nc3ccccc3n2Cc2ccccc2)nc2ccccc21` [Compound V3], the “Protection in Yeast” value in assay [2] is recorded as “− (Compounds showing less than 5% growth were scored (−))”.
Same read-out and setting: the value for `O=C(CC1C(=O)NCCN1C(=O)CN1CCN(CCO)CC1)Nc1ccccc1` (centres unmarked) [Compound V20] was “− (Compounds showing less than 5% growth were scored (−))”.
With `Nc1c(NCCCN2CCOCC2)c2ccccc2oc1=O` [Compound V9], the “protection of C38 cells” value in assay [1] was “moderate activity”. Further, the “Protection in Yeast” value in assay [2] is “− (Compounds showing less than 5% growth were scored (−))”.
Regarding `O=c1[nH]c2ccccc2c2ccccc12` [PJ97A, reference compound], in assay [1], the “LD50 of ExoA in the presence of compound” value was greater than 750 ng/mL, the “increase of the LD50 of ExoA” value is given as roughly 12 fold and the “protection of C38 cells” value was “strong protection”. Further, the Kd on WT ExoAc (read-out: Kd) was determined as 393 ± 64 nM. At cholix toxin (read-out: IC50), the half-maximal inhibitory concentration (IC50) is 4670 ± 175 nM. The inhibition constant (Ki) at cholix toxin (read-out: Ki) was determined as 610 ± 175 nM.
With `CC1CCCCN1c1nc2c(c(=O)[nH]c(=O)n2C)n1Cc1ccccc1` (centres unmarked) [Compound V29], the “protection of C38 cells” value in assay [1] is listed as “Weak protection”. Further, in assay [2], the “protection in yeast against ExoAc (in words)” value is “weak protection” and the “Protection in Yeast” value is reported as “+ (5-25% (+))”.
Take `CC1(C)C(=O)N(CC(O)Cn2cnc3ccccc32)C(=O)N1CN1C(=O)N(CC(O)Cn2cnc3ccccc32)C(=O)C1(C)C` (centres unmarked) [Compound V11]: in assay [1], the “protection of C38 cells” value is recorded as “Weak protection”. Also, the “Protection in Yeast” value in assay [2] was “− (Compounds showing less than 5% growth were scored (−))”.
In the case of `O=c1cc(NCCNc2cc(=O)oc3ccccc23)c2ccccc2o1` [Compound V1], the “Protection in Yeast” value in assay [2] is on record as “− (Compounds showing less than 5% growth were scored (−))”.
On the same count and under the same terms, the value for `COc1ccc(NC(=O)CC2C(=O)N(c3ccc(Cl)cc3)C(=S)N2CCc2ccncc2)cc1` (centres unmarked) [Compound V18] was “− (Compounds showing less than 5% growth were scored (−))”.
For `Cn1c(=O)c2[nH]c(CNCc3ccccc3Cl)nc2n(C)c1=O` [Compound V17], the “protection of C38 cells” value in assay [1] is “moderate activity”. The “Protection in Yeast” value in assay [2] is “− (Compounds showing less than 5% growth were scored (−))”.
Turning to `O=C(Nc1c2ccccc2nc2ccccc12)c1ccc([N+](=O)[O-])cc1` [Compound V7], the “Protection in Yeast” value in assay [2] is listed as “toxic (any compound that reduced cell viability to less than 30%)”.
`COC(=O)c1[nH]c(C)c(C(=O)C2=C(O)C(=O)N(CCCN3CCOCC3)C2c2ccccn2)c1C` (centres unmarked) [Compound V21]: the “protection of C38 cells” value in assay [1] is recorded as “Weak protection”. In addition, the “Protection in Yeast” value in assay [2] is recorded as “− (Compounds showing less than 5% growth were scored (−))”.
